Measurements reported in patent publication US10758549B2, “Compositions of obeticholic acid and methods of use” (Intercept Pharmaceuticals, Inc., priority 2015, dated 2020).
Values after ≈ are worked out from the molar mass of the structure shown.

Key:
[1] = normal hepatic function, Fixed; cited from earlier work
[2] = Solubility of OCA in biologically relevant media at 37° C.; assay type: physicochemical; conditions: for solubility: physiologically relevant dissolution media
Excerpt: Solubility Studies of OCA in Biological Media.

pKa = assay type: physicochemical
patients with PBC = experiment: Example 9: randomized double-blind placebo-controlled 12-month trial of OCA in PBC; assay type: in vivo, human; conditions: for Patients who achieved response (ALP<1.67×ULN, ALP reduction ≥15%, TB≤ULN) at Month 6 / Patients who achieved response (ALP<1.67×ULN, ALP reduction ≥15%, TB≤ULN) at Month 12: ITT; for patients who experienced an increase in ALP: 12 months (placebo 36%); for Response at Month 6 [1] / Response at Month 12 [1]: Table 25 analysis; for ALP < 1.67 × ULN and Decrease ≥ 15% at Month 6 [3] / ALP < 1.67 × ULN and Decrease ≥ 15% at Month 12 [3] / ALP < 1.67 × ULN at Month 6 [3] / ALP < 1.67 × ULN at Month 12 [3] / Decrease in ALP ≥ 15% at Month 6 [3] / Decrease in ALP ≥ 15% at Month 12 [3]: patients with Baseline ALP ≥ 1.67 × ULN but < 2.0 × ULN; for ALP < 2.0 × ULN and Decrease ≥ 40% at Month 6 [2] / ALP < 2.0 × ULN and Decrease ≥ 40% at Month 12 [2] / ALP < 2.0 × ULN at Month 6 [2] / ALP < 2.0 × ULN at Month 12 [2] / Decrease in ALP ≥ 40% at Month 6 [2] / Decrease in ALP ≥ 40% at Month 12 [2]: patients with Baseline ALP ≥ 2.0 × ULN
Description: This example describes a randomized, double-blind, placebo-controlled, parallel-group, 12-month trial evaluating OCA in patients with PBC as a monotherapy.
Patients with inflammatory bowel disease or who had undergone gastric bypass procedures were excluded (gastric lap band was acceptable). • Medical conditions that could cause non-hepatic increases in ALP (e.g., Paget's disease)
ALP and TB composite response criteria were measured; a patient was designated as a responder if all three of the following conditions were met: • A value of ALP<1.67×ULN • ALP reduction from baseline ? 15% • A value of TB<ULN
The absolute and percent change from Baseline in ALP, gamma-glutamyl transferase (GGT), alanine aminotransferase (ALT), AST, total bilirubin, conjugated (direct) bilirubin, albumin, prothrombin time and international normalized ratio (INR) at all-time points was measured. The percentage of patients with a decrease in ALP of ? 10%, ? 15%, ? 20%, and ? 40% from Baseline or ? ULN at month 12 was measured. The percentage of patients achieving the following biochemical response criteria was also measured: • ALP ? 3×ULN and AST ? 2×ULN and bilirubin ? ULN ((Corpechot 2008);
Bile acid sequestrant (BAS) concomitant exposure. The primary analysis set used for all efficacy analyses, along with the summarization of disposition along with demographics and baseline characteristics, was the ‘Intent-to-Treat’ (ITT) analysis set. This analysis set included all randomized patients who received at least one dose of blinded study drug. When utilizing this analysis set, patients were analyzed according to the treatment group that they were randomized to regardless of the actual treatment received. It should be noted that all but one randomized patient received at least one dose of blinded study drug.
A Cochran-Mantel-Haenszel (CMH) test which adjusted for both randomization stratification variables as described above, was used for pre-specified analysis. In tandem with the CMH test, a Breslow-Day test was also conducted, to test for the homogeneity of the treatment effect across the different randomization strata.

[3] = Hepatic impairment study, single dose of 10 mg OCA; assay type: in vivo, human; conditions: hepatically-impaired patients
Excerpt: The mean total OCA concentration-time profiles in this study are shown in FIG. 16 and the mean PK parameters (Cmax and AUCt) for total OCA in plasma for normal healthy volunteers and subjects with various categories of hepatic impairment are quantified in Table 27.
Development of the PK model for the physiological changes associated with hepatic impairment used 928 plasma sample concentrations of OCA, glyco-OCA, and tauro-OCA from 32 subjects-8 subjects each with mild, moderate, severe hepatic impairment and normal hepatic function. Subjects were administered a single 10 mg dose of OCA. […] Participants were 90.6% white, 3.1% black, 3.1% Asian, and 3.1% other. Mean Child-Pugh Score was 8.0 (2.0) (Child-Pugh Score: Class A/Mild 5-6 points, Class B/Moderate 7-9 points, Class C/Severe 10-15 points). The percentage of BLQ samples with imputed concentrations was 16.8%, 5.4%, and 9.6% for OCA, glyco-OCA, and tauro-OCA, respectively.

[4] = 10 mg OCA (N = 73), listed as Obeticholic acid

CC[C@H]1[C@@H](O)[C@@H]2[C@H](CC[C@]3(C)[C@@H]([C@H](C)CCC(=O)O)CC[C@@H]23)[C@@]2(C)CC[C@@H](O)C[C@@H]12 [OCA, 3α,7α-dihydroxy-6α-ethyl-5β-cholan-24-oic acid]
t13: OCA transport rate from sinusoidal space to liver [1]: 1.62 h⁻¹
USP Solubility Rating ([2]; pH 1.2 (0.1N HCl)): Practically insoluble
Solubility (mg/mL) ([2]; pH 1.2 (0.1N HCl), 37° C.): <LOQ
USP Solubility Rating ([2]; pH 1.2 (FaSSGF)): Practically insoluble
Solubility (mg/mL) ([2]; pH 1.2 (FaSSGF), 37° C.): <LOQ
USP Solubility Rating ([2]; pH 4.5): Practically insoluble
Solubility (mg/mL) ([2]; pH 4.5, 37° C.): <LOQ
USP Solubility Rating ([2]; pH 5.0 (FeSSIF)): Freely soluble
increase in OCA solubility ([2]; pH 5.0 with taurocholate and lecithin (FeSSIF) vs. pH 5.1 acetate buffer alone): 35 fold
USP Solubility Rating ([2]; pH 6.5 (FaSSIF)): Freely soluble
USP Solubility Rating ([2]; pH 6.8): Freely soluble
USP Solubility Rating ([2]; pH 6.8 with surfactant): Freely soluble
solubility ([2]; aqueous buffer, pH 6.8 (proposed dissolution medium, sodium phosphate dibasic), 37° C.): 220 µg/mL (≈ 523 µM)
solubility ([2]; aqueous with cosolvent or surfactant or cyclodextrin, pH 6.8 with surfactant (polysorbate 80), 37° C.): 590 µg/mL (≈ 1400 µM)
solubility ([2]; pH 5.0 (FeSSIF), 37° C.): 820 µg/mL (≈ 1950 µM)
solubility ([2]; pH 6.5 (FaSSIF), 37° C.): 640 µg/mL (≈ 1520 µM)
pKa (pKa): 4.82
ALP Absolute Change from Baseline to Month 12 (U/L), Mean (patients with PBC; 10 mg OCA): −11|7.1 U/L
ALP Absolute Change from Baseline to Month 12 (U/L), Median (patients with PBC; 10 mg OCA): −99.0 U/L
ALP Percentage Change from Baseline to Month 12 (%), Mean (patients with PBC; 10 mg OCA): −36.4%
ALP Percentage Change from Baseline to Month 12 (%), Median (patients with PBC; 10 mg OCA): −38.3%
Month 12 ALP Concentration (U/L), Mean (patients with PBC; 10 mg OCA): 191.2 U/L
Month 12 ALP Concentration (U/L), Median (patients with PBC; 10 mg OCA): 181.7 U/L
Month 12 ALP Concentration (×ULN), Mean (patients with PBC; 10 mg OCA): 1.606 ×ULN
Month 12 ALP Concentration (×ULN), Median (patients with PBC; 10 mg OCA): 1.527 ×ULN
Patients with ALP < 1.67 × ULN at Month 12 (patients with PBC; 10 mg OCA (N = 73)): (54.8%)
Patients with Decrease in ALP ≥ 10% at Month 12 (patients with PBC; 10 mg OCA (N = 73)): (83.6%)
Patients with Decrease in ALP ≥ 15% at Month 12 (patients with PBC; 10 mg OCA (N = 73)): (78.1%)
Patients with Decrease in ALP ≥ 20% at Month 12 (patients with PBC; 10 mg OCA (N = 73)): (74.0%)
Patients with Decrease in ALP ≥ 40% at Month 12 (patients with PBC; 10 mg OCA (N = 73)): (34.3%)
Patients who achieved response (ALP<1.67×ULN, ALP reduction ≥15%, TB≤ULN) at Month 6 (patients with PBC; 10 mg OCA (N = 73)): 37 (50.7%)
Patients who achieved response (ALP<1.67×ULN, ALP reduction ≥15%, TB≤ULN) at Month 6 (patients with PBC; [4]): 37 (51) %
Patients who achieved response (ALP<1.67×ULN, ALP reduction ≥15%, TB≤ULN) at Month 12 (patients with PBC; [4]): 34 (47) %
Patients with Decrease in ALP ≥ 15% at Month 12 (patients with PBC; 10 mg OCA (N = 73), listed as obeticholic acid): 77%
patients who experienced an increase in ALP (patients with PBC; 10 mg obeticholic acid): 2%
up-titrated patients who met the composite endpoint (patients with PBC; 33 patients titrated from 5 mg to 10 mg at Month 6): 39%
ALP Absolute Change from Baseline to Month 12 (U/L), Median (patients with PBC; OCA Titration): −85.5 U/L
ALP Percentage Change from Baseline to Month 12 (%), Mean (patients with PBC; OCA Titration): −30.5%
ALP Percentage Change from Baseline to Month 12 (%), Median (patients with PBC; OCA Titration): −31.5%
Month 12 ALP Concentration (U/L), Mean (patients with PBC; OCA Titration): 219.5 U/L
Month 12 ALP Concentration (U/L), Median (patients with PBC; OCA Titration): 196.6 U/L
Month 12 ALP Concentration (×ULN), Mean (patients with PBC; OCA Titration): 1.851 ×ULN
Month 12 ALP Concentration (×ULN), Median (patients with PBC; OCA Titration): 1.661 ×ULN
Patients with ALP < 1.67 × ULN at Month 12 (patients with PBC; OCA Titration (N = 70)): (47.1%)
Patients with Decrease in ALP ≥ 10% at Month 12 (patients with PBC; OCA Titration (N = 70)): (78.6%)
Patients with Decrease in ALP ≥ 15% at Month 12 (patients with PBC; OCA Titration (N = 70)): (77.1%)
Patients with Decrease in ALP ≥ 20% at Month 12 (patients with PBC; OCA Titration (N = 70)): (70.0%)
Patients with Decrease in ALP ≥ 40% at Month 12 (patients with PBC; OCA Titration (N = 70)): (30.0%)
Patients with Decrease in ALP ≥ 15% at Month 12 (patients with PBC; OCA Titration (N = 70), listed as obeticholic acid): 77%
Patients who achieved response (ALP<1.67×ULN, ALP reduction ≥15%, TB≤ULN) at Month 6 (patients with PBC; OCA Titration, 5 mg (N = 70)): 24 (34.3%)
Patients who achieved response (ALP<1.67×ULN, ALP reduction ≥15%, TB≤ULN) at Month 6 (patients with PBC; OCA Titration, 5 mg (N = 70), listed as Obeticholic acid): 24 (34) %
Patients who achieved response (ALP<1.67×ULN, ALP reduction ≥15%, TB≤ULN) at Month 12 (patients with PBC; OCA Titration, 5 mg or 10 mg (N = 70), listed as Obeticholic acid): 32 (46) %
Response at Month 6 [1] (patients with PBC; 10 mg OCA (N = 60)): (41.7%)
Response at Month 12 [1] (patients with PBC; 10 mg OCA (N = 60)): (43.3%)
Response at Month 6 [1] (patients with PBC; OCA Titration (N = 60)): (35.0%)
Response at Month 12 [1] (patients with PBC; OCA Titration (N = 60)): (38.3%)
responders who became non-responders (patients with PBC; continued dosing of 5 mg QD, month 6 to month 12): 19%
ALP < 1.67 × ULN and Decrease ≥ 15% at Month 6 [3] (patients with PBC; 10 mg OCA): (88.9%)
ALP < 1.67 × ULN and Decrease ≥ 15% at Month 12 [3] (patients with PBC; 10 mg OCA): (77.8%)
ALP < 1.67 × ULN at Month 6 [3] (patients with PBC; 10 mg OCA): (94.4%)
ALP < 1.67 × ULN at Month 12 [3] (patients with PBC; 10 mg OCA): (88.9%)
Decrease in ALP ≥ 15% at Month 6 [3] (patients with PBC; 10 mg OCA): (88.9%)
Decrease in ALP ≥ 15% at Month 12 [3] (patients with PBC; 10 mg OCA): (77.8%)
ALP < 1.67 × ULN and Decrease ≥ 15% at Month 6 [3] (patients with PBC; OCA Titration): (76.9%)
ALP < 1.67 × ULN and Decrease ≥ 15% at Month 12 [3] (patients with PBC; OCA Titration): (76.9%)
ALP < 1.67 × ULN at Month 6 [3] (patients with PBC; OCA Titration): (76.9%)
ALP < 1.67 × ULN at Month 12 [3] (patients with PBC; OCA Titration): (84.6%)
Decrease in ALP ≥ 15% at Month 6 [3] (patients with PBC; OCA Titration): (84.6%)
Decrease in ALP ≥ 15% at Month 12 [3] (patients with PBC; OCA Titration): (76.9%)
ALP < 2.0 × ULN and Decrease ≥ 40% at Month 6 [2] (patients with PBC; 10 mg OCA): (21.4%)
ALP < 2.0 × ULN and Decrease ≥ 40% at Month 12 [2] (patients with PBC; 10 mg OCA): (28.6%)
ALP < 2.0 × ULN at Month 6 [2] (patients with PBC; 10 mg OCA): (71.4%)
ALP < 2.0 × ULN at Month 12 [2] (patients with PBC; 10 mg OCA): (69.1%)
Decrease in ALP ≥ 40% at Month 6 [2] (patients with PBC; 10 mg OCA): (23.8%)
Decrease in ALP ≥ 40% at Month 12 [2] (patients with PBC; 10 mg OCA): (31.0%)
ALP < 2.0 × ULN and Decrease ≥ 40% at Month 6 [2] (patients with PBC; OCA Titration): (23.4%)
ALP < 2.0 × ULN and Decrease ≥ 40% at Month 12 [2] (patients with PBC; OCA Titration): (27.7%)
ALP < 2.0 × ULN at Month 6 [2] (patients with PBC; OCA Titration): (51.1%)
ALP < 2.0 × ULN at Month 12 [2] (patients with PBC; OCA Titration): (59.6%)
Decrease in ALP ≥ 40% at Month 6 [2] (patients with PBC; OCA Titration): (27.7%)
Decrease in ALP ≥ 40% at Month 12 [2] (patients with PBC; OCA Titration): (34.0%)
patients who experienced an increase in ALP (patients with PBC; titration obeticholic acid): 5%
plasma OCA exposures versus healthy subjects [3]: > 10 fold
